From patent US20140142333A1, “NOVEL ANILINE DERIVATIVES AND USE THEREOF” (NEOMICS Co, Ltd., priority 2011, published 2014)

Key:
[1] = target: T1, AIMP2-DX2 (Homo sapiens, UniProt Q13155); assay: luciferase assay of pGL-DX-2 transfected H460 cells; settings: luciferase activity 4 hours after compound treatment; N.C (DMSO) 8627; lower = inhibition
T1 sequence (Q13155 1-251 isoform Q13155-2): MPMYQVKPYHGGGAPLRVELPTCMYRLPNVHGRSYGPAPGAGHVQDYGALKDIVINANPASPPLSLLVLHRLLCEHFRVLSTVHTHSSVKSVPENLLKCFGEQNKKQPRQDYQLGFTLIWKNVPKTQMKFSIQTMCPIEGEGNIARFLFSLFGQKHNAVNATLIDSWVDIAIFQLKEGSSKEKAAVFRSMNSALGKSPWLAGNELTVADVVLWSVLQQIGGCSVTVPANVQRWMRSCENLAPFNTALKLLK
Method: In order to screen for a compound specifically inhibiting the activity of AIMP2-DX2, from a compound library bought from ChemDive (US), the inventors' transfected lung cancer cell line, H460, with pGL2-DX2 (see FIG. 2). After culturing the cell line for 24 hours, they treated it with a compound. Then, after further culturing for 4 hours, luciferase activity was measured through a luciferase assay kit according to a manufacturer protocol (Promega, US), by using a luminometer.
After further culturing for 4 hours, luciferase activity was measured.

[2] = target: T1, AIMP2-DX2; assay: luciferase assay of pGL-DX-2 transfected A549 cells; settings: luciferase activity 4 hours after compound treatment; N.C (DMSO) 20089; lower = inhibition

| Compound | AIMP2-DX2 activity in H460 cells [1] | AIMP2-DX2 activity in A549 cells [2] |
| --- | --- | --- |
| Cc1ccc(NC(=O)/C=C/C(=O)Nc2ccc(C)c(C)c2)cc1C [compound 1, N1,N4-bis(3,4-dimethylphenyl)fumaramide] | 7101 | 14179 |
| Cc1cccc(NC(=O)/C=C/C(=O)Nc2cccc(C)c2)c1 [compound 2, N1,N4-di-m-tolylfumaramide] | 7292 | 14072 |
| Cc1ccc(C)c(NC(=O)/C=C\C(=O)Nc2ccc(C)c(C)c2)c1 [compound 3, N1-(2,5-dimethylphenyl)-N4-(3,4-dimethylphenyl)maleamide] | 7749 | 10043 |
| Cc1cccc(NC(=O)/C=C\C(=O)Nc2cccc(C)c2)c1 [compound 4, N1,N4-di-m-tolylmaleamide] | 8189 | 9605 |
| Cc1ccc(NC(=O)/C=C\C(=O)Nc2ccc(F)cc2C)cc1C [compound 5, N1-(3,4-dimethylphenyl)-N4-(4-fluoro-2-methylphenyl)maleamide] | 7427 | 9643 |
| Cc1ccc(NC(=O)/C=C\C(=O)Nc2ccc(C)c(F)c2)cc1C [compound 6, N1-(3,4-dimethylphenyl)-N4-(3-fluoro-4-methylphenyl)maleamide] | 8901 | 10551 |
| Cc1ccc(NC(=O)/C=C\C(=O)Nc2cc(Cl)cc(Cl)c2)cc1C [compound 7, N1-(3,5-dichlorophenyl)-N4-(3,4-dimethylphenyl)maleamide] | 5019 | 8268 |
| Cc1ccc(C)c(NC(=O)/C=C\C(=O)O)c1 [compound 8, (Z)-4-[(2,5-dimethylphenyl)amino]-4-oxobut-2-enoic acid] | 7648 | 6705 |
| Cc1cc(C)cc(NC(=O)/C=C\C(=O)O)c1 [compound 9, (Z)-4-[(3,5-dimethylphenyl)amino]-4-oxobut-2-enoic acid] | 7064 | 6786 |
| CCCCc1ccc(NC(=O)/C=C\C(=O)O)cc1 [compound 10, (Z)-4-[(4-butylphenyl)amino]-4-oxobut-2-enoic acid] | 8045 | 12399 |
| Cc1cccc(NC(=O)/C=C\C(=O)O)c1 [compound 11, (Z)-4-oxo-4-(m-tolylamino) but-2-enoic acid] | 7143 | 6328 |
| O=C(O)/C=C\C(=O)Nc1ccc(F)cc1 [compound 12, (Z)-4-[(4-fluorophenyl)amino]-4-oxobut-2-enoic acid] | 7031 | 7937 |
| O=C(O)/C=C\C(=O)Nc1cc(Cl)cc(Cl)c1 [compound 13, (Z)-4-[(3,5-dichlorophenyl)amino]-4-oxobut-2-enoic acid] | 7855 | 8049 |
| Cc1cc(Cl)cc(Cl)c1NC(=O)/C=C\C(=O)O [compound 14, (Z)-4-[(2,4-dichloro-6-methylphenyl)amino]-4-oxobut-2-enoic acid] | 230 | 240 |
| Cc1cc(C)cc(NC(=O)/C=C\C(=O)Nc2ccc(C)c(C)c2)c1 [compound 15, N1-(3,4-dimethylphenyl)-N4-(3,5-dimethylphenyl)maleamide] | 8621 | 6981 |
| CCCCc1cccc(NC(=O)/C=C\C(=O)Nc2ccc(C)c(C)c2)c1 [compound 16, N1-(3-butylphenyl)-N4-(3,4-dimethylphenyl)maleamide] | 7511 | 6871 |
| Cc1ccc(NC(=O)/C=C\C(=O)Nc2ccc(Br)cc2)cc1C [compound 17, N1-(4-bromophenyl)-N4-(3,4-dimethylphenyl)maleamide] | 5718 | 6975 |

| Compound | AIMP2-DX2 activity in H460 cells [1] | AIMP2-DX2 activity in A549 cells [2] |
| --- | --- | --- |
| COc1cccc(NC(=O)/C=C\C(=O)Nc2ccc(F)cc2)c1 [compound 18, N1-(4-fluorophenyl)-N4-(3-methoxyphenyl)maleamide] | 3246 | 4239 |
| CCc1cccc(NC(=O)/C=C\C(=O)Nc2ccc(F)cc2)c1 [compound 19, N1-(3-ethylphenyl)-N4-(4-fluorophenyl)maleamide] | 3715 | 3978 |
| Cc1ccc(NC(=O)/C=C\C(=O)O)cc1F [compound 20, (Z)-4-[(3-fluoro-4-methylphenyl)amino]-4-oxobut-2-enoic acid] | 7639 | 6446 |
| O=C(/C=C/C(=O)Nc1cc(Cl)cc(Cl)c1)Nc1cc(Cl)cc(Cl)c1 [compound 21, N1,N4-bis(3,5-dichlorophenyl)fumaramide] | 6061 | 7285 |
| O=C(/C=C/C(=O)Nc1ccc(Br)cc1)Nc1ccc(Br)cc1 [compound 22, N1,N4-bis(4-bromophenyl) fumaramide] | 6377 | 5647 |
| O=C(/C=C/C(=O)Nc1ccc(Cl)c(Cl)c1)Nc1ccc(Cl)c(Cl)c1 [compound 23, N1,N4-bis(3,4-dichlorophenyl)fumaramide] | 6391 | 5352 |
| Cc1ccc(NC(=O)/C=C/C(=O)Nc2ccc(C)c(F)c2)cc1F [compound 24, N1,N4-bis(3-fluoro-4-methylphenyl)fumaramide] | 7094 | 5812 |
| COc1ccc(NC(=O)/C=C\C(=O)Nc2ccc(OC)cc2)cc1 [compound 25, N1,N4-bis(4-methoxyphenyl) maleamide] | 6085 | 5152 |
| Cc1ccc(NC(=O)/C=C\C(=O)Nc2ccc(F)cc2)cc1F [compound 26, N1-(3-fluoro-4-methylphenyl)-N4-(4-fluorophenyl)maleamide] | 6428 | 6525 |
| Cc1cc(F)ccc1NC(=O)/C=C\C(=O)Nc1ccc(F)cc1C [compound 27, N1,N4-bis(4-fluoro-2-methylphenyl)maleamide] | 6029 | 5586 |
| COc1cccc(NC(=O)C(C)C(=O)Nc2cc(C)ccc2C)c1 (stereo not drawn) [compound 28, N1-(2,5-dimethylphenyl)-N3-(3-methoxyphenyl)-2-methylmalonamide] | 7722 | 6691 |
| Cc1cccc(NC(=O)/C=C\C(=O)Nc2ccc(F)cc2)c1 [compound 29, N1-(4-fluorophenyl)-N4-(m-tolyl)maleamide] | 5916 | 5662 |
| COc1cccc(NC(=O)C(C)C(=O)Nc2cc(C)cc(C)c2)c1 (stereo not drawn) [compound 30, N1-(3,5-dimethylphenyl)-N3-(3-methoxyphenyl)-2-methylmalonamide] | 7167 | 7291 |
| CCOC(=O)C(C)C(=O)Nc1ccc2cc3ccccc3cc2c1 (stereo not drawn) [compound 31, ethyl 3-(anthracen-2-ylamino)-2-methyl-3-oxopropanoate] | 6346 | 5771 |
| CCOC(=O)CC(=O)Nc1ccc(O)cc1Cl [compound 32, ethyl 3-[(2-chloro-4-hydroxyphenyl)amino]-3-oxopropanoate] | 4848 | 19889 |
| CCOC(=O)C(C)C(=O)Nc1ccc(O)cc1Cl (stereo not drawn) [compound 33, ethyl 3-[(2-chloro-4-hydroxyphenyl)amino]-2-methyl-3-oxopropanoate] | 5403 | 18631 |
